Measurements: US7850984B2, “Protection of the female reproductive system from natural and artificial insults” (The General Hospital Corporation, priority 2000, dated 2010)

Tests used:
oocytes [1] = assay: In vitro oocyte culture with or without doxorubicin, apoptosis; type: cell-based, mouse; settings: 200 nM DXR, 24 hours, wild-type versus ASMase-deficient oocytes
Description: In addition to assessments of cellular morphology and caspase activation, some oocytes in each group are processed for DNA cleavage analysis as an endpoint for cell death using the Trevigen Comet Assay kit.
Female mice (43 days of age post-partum; Charles River Laboratories, Wilmington, Mass.) are superovulated with 10 IU of equine chorionic gonadotropin (eCG orPMSG) followed by 10 IU of human chorionic gonadotropin (hCG) 48 h later. Mature oocytes are collected from the oviducts 16 h after hCG injection. Cumulus enclosed oocytes are denuded by a 1-min incubation in 80 IU/ml of hyaluronidase, followed by three washes with culture medium. The medium used for all culture experiments is human tubal fluid (Irvine Scientific, Santa Ana, Calif.) supplemented with 0.5% bovine serum albumin (BSA).
Oocytes are cultured in 0.1 ml drops of culture medium (8-10 oocytes/drop) under paraffin oil and incubated with or without DXR (200 nM) and/or fumonisin-B1, sphingosine-1-phosphate or benzyloxycarbonyl-Val-Ala-Asp-fluoromethylketone (zVAD-FMK) for 24 h at 37° C. in a humidified atmosphere of 5% CO2-95% air. […] The percentage of oocytes that go through apoptosis out of the total number of oocytes cultured per drop in each experiment is then determined, and all experiments are independently repeated four to ten times with different mice.

oocytes [2] = settings: female mouse oocytes; Perez et al. (1997); cited from earlier work
[3] = test system: germ cells of wild-type fetal ovaries (e13.5); assay: Fetal ovary culture without hormonal support, germ cell survival; type: cell-based, mouse; settings: wild-type fetal ovaries, 72 hours in vitro without hormonal support; FB1 5-500 μM; S1P increasing concentrations
Description: To determine the basis of the extensive oocyte hyperplasia in ASMase −/− neonates, fetal ovaries are harvested from wild-type and mutant mice at embryonic day 13.5 (e13.5) for in vitro culture as a model to recapitulate the events surrounding germline death that occurs as a normal component of female gametogenesis. A time-dependent activation of programmed cell death is observed in the germline of wild-type fetal ovaries cultured without hormonal support for up to 72 hours (FIG. 2A). […] These findings indicate that there exists an ovarian-intrinsic cell death defect in the ASMase-deficient mouse, and point to enhanced survival of the developing germline during oogenesis as the mechanism underlying the enlarged oocyte pool seen in mutant females at birth.
Equivalent levels of in vitro germ cell survival are obtained by either ASMase gene knockout (FIG. 2A) or by S1P treatment (FIG. 2B).

oocytes [4] = assay: Microinjection of recombinant protein into single oocytes, apoptosis; type: cell-based, mouse; settings: wild-type oocytes; ASMase: six picoliters of a 1 mg/ml stock
Description: Human recombinant acid sphingomyelinase is synthesized and purified as described by He et al., Biochim. Biophys. Acta 1432, 251 (1999), incorporated herein by reference in its entirety. Six picoliters of vehicle or of a 1 mg/ml stock of the enzyme are microinjected into single oocytes using a Zeiss Axiovert 135 inverted microscope equipped with Narishige micromanipulators and a PLI-100 pico-injector. Oocytes that survive the microinjection procedure (>75%) are then cultured and assessed for the occurrence of apoptosis. Furthermore, microinjection of human recombinant Bax protein into single oocytes and assessments of apoptosis are made as described by Perez, et al. (1997) id. Microinjection of human recombinant Bax protein into oocytes duplicates the pro-apoptotic effects of both human recombinant ASMase microinjection and anti-cancer drug treatment (FIG. 3E).

## COc1cccc2c1C(=O)c1c(O)c3c(c(O)c1C2=O)C[C@@](O)(C(=O)CO)C[C@@H]3O[C@H]1C[C@H](N)[C@H](O)[C@H](C)O1 [DXR, doxorubicin, reference compound]
Oocytes [1]
  apoptotic event in oocytes: elicited in wild-type, but not ASMase-deficient, oocytes
Oocytes [2]
  oocyte cell death on in vitro exposure: undergo a type of cell death, referred to as apoptosis

## CCCC[C@@H](C)[C@@H](OC(=O)C[C@@H](CC(=O)O)C(=O)O)[C@H](C[C@@H](C)C[C@H](O)CCCC[C@@H](O)C[C@H](O)[C@H](C)N)OC(=O)C[C@@H](CC(=O)O)C(=O)O [FB1, fumonisin-B1, reference compound]
[3]
  germ cell survival / germ cell apoptosis in cultured fetal ovaries: does not alter survival rates in the female germline

## human recombinant Bax: human recombinant Bax protein microinjected into single oocytes
Oocytes [4]
  apoptosis after microinjection versus vehicle-injected oocytes: significant (P<0.05) increase in apoptosis

B1: human recombinant ASMase: human recombinant acid sphingomyelinase enzyme microinjected into single oocytes (protein, UniProt P17405 47-631, looked up)
Sphingomyelin …: LALSDSRVLWAPAEAHPLSPQGHPARLHRIVPRLRDVFGWGNLTCPICKGLFTAINLGLKKEPNVARVGSVAIKLCNLLKIAPPAVCQSIVHLFEDDMVEVWRRSVLSPSEACGLLLGSTCGHWDIFSSWNISLPTVPKPPPKPPSPPAPGAPVSRILFLTDLHWDHDYLEGTDPDCADPLCCRRGSGLPPASRPGAGYWGEYSKCDLPLRTLESLLSGLGPAGPFDMVYWTGDIPAHDVWHQTRQDQLRALTTVTALVRKFLGPVPVYPAVGNHESTPVNSFPPPFIEGNHSSRWLYEAMAKAWEPWLPAEALRTLRIGGFYALSPYPGLRLISLNMNFCSRENFWLLINSTDPAGQLQWLVGELQAAEDRGDKVHIIGHIPPGHCLKSWSWNYYRIVARYENTLAAQFFGHTHVDEFEVFYDEETLSRPLAVAFLAPSATTYIGLNPGYRVYQIDGNYSGSSHVVLDHETYILNLTQANIPGAIPHWQLLYRARETYGLPNTLPTAWHNLVYRMRGDMQLFQTFWFLYHKGHPPSEPCGTPCRLATLCAQLSARADSPALCRHLMPDGSLPEAQSLWPRPLFC
Oocytes [4]
  apoptosis after microinjection versus vehicle-injected oocytes: significant (P<0.05) increase in apoptosis
